Source: ChEMBL document CHEMBL4342403, “New evolutions in the BACE1 inhibitor field from 2014 to 2018” (Bioorg Med Chem Lett, 2019)
Values belong to the compound of their own block, whether it stands above or below them.

Assays:
Beta-secretase 1 [1] = target: T1, Beta-secretase 1 (Homo sapiens, UniProt P56817); test: Inhibition of BACE1 in human H4 cells transfected with APP695 assessed as […] incubated for 18 hrs by ELISA; format: cell-based
[2] = Dissociation constant, pKa of the compound; format: physicochemical
Beta-secretase 1 [3] = target: Beta-secretase 1 (Cricetulus griseus, UniProt G3IAK4); test: Inhibition of BACE1 in CHO cells expressing human APP assessed as reduction in amyloidbeta (1 to 40 residues) level incubated for 24 hrs by immunoassay method; format: cell-based
Beta-secretase 1 [4] = target: T1, Beta-secretase 1; test: Inhibition of BACE1 (unknown origin) incubated for 120 mins using APP swedish mutant as substrate by FRET assay
Beta-secretase 2 [5] = target: T2, Beta-secretase 2 (Homo sapiens, UniProt Q9Y5Z0); test: Inhibition of BACE2 (unknown origin) incubated for 450 mins using APP swedish mutant as substrate by FRET assay
T2 sequence (Q9Y5Z0 whole entry): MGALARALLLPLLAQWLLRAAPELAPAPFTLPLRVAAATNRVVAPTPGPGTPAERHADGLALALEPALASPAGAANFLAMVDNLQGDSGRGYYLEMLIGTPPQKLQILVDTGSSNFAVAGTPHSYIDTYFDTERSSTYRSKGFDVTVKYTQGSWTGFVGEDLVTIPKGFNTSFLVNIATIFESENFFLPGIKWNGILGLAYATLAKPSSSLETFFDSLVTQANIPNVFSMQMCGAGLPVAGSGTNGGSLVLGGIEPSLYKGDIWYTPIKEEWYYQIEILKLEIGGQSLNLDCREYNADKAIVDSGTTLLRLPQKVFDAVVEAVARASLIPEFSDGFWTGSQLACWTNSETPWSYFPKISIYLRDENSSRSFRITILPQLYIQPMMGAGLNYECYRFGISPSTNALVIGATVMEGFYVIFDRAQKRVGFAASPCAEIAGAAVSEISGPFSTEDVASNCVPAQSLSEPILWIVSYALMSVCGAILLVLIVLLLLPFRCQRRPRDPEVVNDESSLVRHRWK

Canis familiaris [6] = test: In vivo inhibition of BACE1 in Beagle dog assessed as reduction in amyloidbeta (1 to 42 residues) at 0.16 mg/kg, po measured at 8 hrs post dose relative to baseline; format: functional; conditions: Canis lupus familiaris
Canis familiaris [7] = test: In vivo inhibition of BACE1 in Beagle dog assessed as reduction in amyloidbeta (1 to 42 residues) at 0.31 mg/kg, po measured at 8 hrs post dose relative to baseline; format: functional; conditions: Canis lupus familiaris
Canis familiaris [8] = test: In vivo inhibition of BACE1 in Beagle dog assessed as reduction in amyloidbeta (1 to 42 residues) at 1.25 mg/kg, po measured at 8 hrs post dose relative to baseline; format: functional; conditions: Canis lupus familiaris
Beta-secretase 1 [9] = target: T1, Beta-secretase 1; test: Inhibition of BACE1 in human SK-N-BE(2) cells expressing human APP695 assessed as reduction in amyloidbeta (1 to 42 residues) level incubated for 18 hrs by sandwich ELISA; format: cell-based
Beta-secretase 1 [10] = target: T1, Beta-secretase 1; test: Inhibition of human BACE1 expressed in HEK293 cells incubated for 16 to 24 hrs by FRET assay; format: cell-based
Beta-secretase 1 [11] = target: T1, Beta-secretase 1; test: Inhibition of BACE1 in human SH-SY5Y cells transfected with APP695 assessed as reduction in amyloidbeta (1 to 40 residues) incubated for 24 hrs by sandwich ELlSA; format: cell-based
Beta-secretase 2 [12] = target: T2, Beta-secretase 2; test: Inhibition of human BACE2 expressed in HEK293 cells incubated for 16 to 24 hrs by FRET assay; format: cell-based
Beta-secretase 1 [13] = target: T1, Beta-secretase 1; test: Inhibition of BACE1 (unknown origin)
Beta-secretase 1 [14] = target: T1, Beta-secretase 1; test: Inhibition of BACE1 (unknown origin) by cell-based assay
Beta-secretase 2 [15] = target: T2, Beta-secretase 2; test: Inhibition of BACE2 (unknown origin)
Canis familiaris [16] = test: In vivo inhibition of BACE1 in dog assessed as reduction in amyloidbeta level in CSF at 1 mg/kg, po measured at 24 hrs post dose relative to control; format: functional; conditions: Canis lupus familiaris
Canis familiaris [17] = test: In vivo inhibition of BACE1 in dog assessed as reduction in amyloidbeta level in CSF at 1 mg/kg, po measured at 48 hrs post dose relative to control; format: functional; conditions: Canis lupus familiaris
Homo sapiens [18] = test: In vivo inhibition of BACE1 in human assessed as reduction in amyloidbeta40 level in CSF at 15 mg administered once daily for 14 days relative to baseline; format: functional
Homo sapiens [19] = test: In vivo inhibition of BACE1 in human assessed as reduction in amyloidbeta40 level in CSF at 50 mg administered once daily for 14 days relative to baseline; format: functional
Homo sapiens [20] = test: In vivo inhibition of BACE1 in human assessed as reduction in amyloidbeta40 level in CSF at 150 mg administered once daily for 14 days relative to baseline; format: functional
Mus musculus = test: In vivo inhibition of BACE1 in C57B1/6J mouse assessed as reduction in amyloidbeta 40 level in brain at 30 mg/kg, po measured at 4 hrs post dose by AlphaLISA relative to control; format: functional
Homo sapiens [21] = species on record: Homo sapiens; test: Selectivity ratio of IC50 for human BACE2 to IC50 for human BACE1
Rattus norvegicus = test: In vivo inhibition of BACE1 in Sprague Dawley rat assessed as reduction in amyloidbeta 40 level in brain at 3 mg/kg, po by ELISA relative to control; format: functional
[22] = Drug uptake in Sprague Dawley rat brain at 3 mg/kg, po by UPLC-MS/MS analysis; format: ADME, organism-based; conditions: in vivo
P-glycoprotein (ABCB1) = P-glycoprotein (ABCB1) (Homo sapiens, UniProt P08183); test: Substrate activity at P-glycoprotein (unknown origin) in MDCK-MDR1cells assessed as efflux ratio incubated over 60 mins by LC-MS/MS analysis; conditions: MDCK-MDR1
Sequence of P-glycoprotein (ABCB1) (P08183 whole entry): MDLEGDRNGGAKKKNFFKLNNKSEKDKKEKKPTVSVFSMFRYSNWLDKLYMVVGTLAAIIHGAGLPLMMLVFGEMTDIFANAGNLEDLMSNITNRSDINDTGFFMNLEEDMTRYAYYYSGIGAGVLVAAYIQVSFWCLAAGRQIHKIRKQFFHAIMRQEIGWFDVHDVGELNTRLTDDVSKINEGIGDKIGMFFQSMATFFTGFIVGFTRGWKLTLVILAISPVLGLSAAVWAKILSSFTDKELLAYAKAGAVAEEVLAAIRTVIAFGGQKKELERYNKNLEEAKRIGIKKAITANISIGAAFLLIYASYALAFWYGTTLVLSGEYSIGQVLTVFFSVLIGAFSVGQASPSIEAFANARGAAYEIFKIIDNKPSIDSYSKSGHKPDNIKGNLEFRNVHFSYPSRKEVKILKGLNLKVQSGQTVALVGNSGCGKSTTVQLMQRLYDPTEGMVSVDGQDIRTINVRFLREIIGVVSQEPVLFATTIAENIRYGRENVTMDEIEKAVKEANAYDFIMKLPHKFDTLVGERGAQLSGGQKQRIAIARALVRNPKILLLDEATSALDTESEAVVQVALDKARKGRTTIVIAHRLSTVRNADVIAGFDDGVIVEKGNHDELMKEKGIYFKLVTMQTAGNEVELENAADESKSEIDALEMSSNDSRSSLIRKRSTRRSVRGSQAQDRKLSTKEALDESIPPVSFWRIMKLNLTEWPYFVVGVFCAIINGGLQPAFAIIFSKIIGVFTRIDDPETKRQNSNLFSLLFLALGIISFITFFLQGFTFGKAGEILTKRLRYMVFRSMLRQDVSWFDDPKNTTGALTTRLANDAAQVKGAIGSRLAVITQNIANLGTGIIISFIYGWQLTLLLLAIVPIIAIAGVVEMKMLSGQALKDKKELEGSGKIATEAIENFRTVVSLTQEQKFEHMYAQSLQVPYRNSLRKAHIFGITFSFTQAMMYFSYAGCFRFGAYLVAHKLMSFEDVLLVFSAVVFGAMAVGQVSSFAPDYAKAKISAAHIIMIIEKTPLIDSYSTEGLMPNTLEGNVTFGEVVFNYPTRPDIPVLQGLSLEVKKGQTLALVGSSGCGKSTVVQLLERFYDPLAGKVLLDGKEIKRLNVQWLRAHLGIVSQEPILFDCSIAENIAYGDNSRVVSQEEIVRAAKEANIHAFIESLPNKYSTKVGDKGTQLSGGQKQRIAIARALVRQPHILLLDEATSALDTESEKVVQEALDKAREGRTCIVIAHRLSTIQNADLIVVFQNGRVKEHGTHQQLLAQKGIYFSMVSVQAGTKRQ

T1 sequence (P56817 whole entry): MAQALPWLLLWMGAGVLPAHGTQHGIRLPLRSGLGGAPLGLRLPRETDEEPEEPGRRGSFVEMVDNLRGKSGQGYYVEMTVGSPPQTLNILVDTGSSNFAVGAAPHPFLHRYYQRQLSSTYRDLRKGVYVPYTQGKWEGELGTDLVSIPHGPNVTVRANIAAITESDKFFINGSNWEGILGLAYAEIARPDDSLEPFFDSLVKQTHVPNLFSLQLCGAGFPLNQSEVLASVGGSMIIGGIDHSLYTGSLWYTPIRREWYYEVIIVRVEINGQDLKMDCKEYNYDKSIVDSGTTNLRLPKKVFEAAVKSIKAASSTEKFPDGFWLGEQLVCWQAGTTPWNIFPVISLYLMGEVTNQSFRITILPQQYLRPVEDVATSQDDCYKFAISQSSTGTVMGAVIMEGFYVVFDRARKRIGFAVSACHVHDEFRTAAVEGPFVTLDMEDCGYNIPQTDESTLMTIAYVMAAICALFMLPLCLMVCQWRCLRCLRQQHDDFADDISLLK
Sequence of Beta-secretase 1 (Cricetulus griseus, UniProt G3IAK4) (G3IAK4 whole entry, the tested form may be a part): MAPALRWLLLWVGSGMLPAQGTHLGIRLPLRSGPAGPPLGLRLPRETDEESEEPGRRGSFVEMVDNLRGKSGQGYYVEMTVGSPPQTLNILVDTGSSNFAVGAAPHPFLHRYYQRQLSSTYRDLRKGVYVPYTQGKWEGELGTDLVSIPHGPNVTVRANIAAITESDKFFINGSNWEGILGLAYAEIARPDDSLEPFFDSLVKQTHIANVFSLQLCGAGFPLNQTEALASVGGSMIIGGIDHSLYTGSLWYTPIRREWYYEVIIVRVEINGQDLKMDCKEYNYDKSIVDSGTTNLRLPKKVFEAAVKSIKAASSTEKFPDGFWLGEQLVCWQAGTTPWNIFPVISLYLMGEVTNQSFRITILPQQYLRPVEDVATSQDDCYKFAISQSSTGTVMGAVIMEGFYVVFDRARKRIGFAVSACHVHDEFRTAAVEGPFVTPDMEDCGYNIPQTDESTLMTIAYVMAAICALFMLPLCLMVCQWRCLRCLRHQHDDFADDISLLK

IC50 (Beta-secretase 1 [1]): < 1 nM
pKa [2]: 8.3
SMILES: C[C@H]1C[C@H]2CSC(N)=N[C@@]2(c2cc(NC(=O)c3ccc(OC(F)F)cn3)ccc2F)CO1

IC50 (Beta-secretase 1 [3]): 8 nM
SMILES: C[C@]1(c2nc(NC(=O)c3ncc(C#N)cc3Cl)ccc2F)N=C(N)OCC1(F)F

SMILES: C[C@H]1OC[C@]2(c3cc(NC(=O)c4ccc(C#N)cn4)ccc3F)N=C(N)[C@](C)(C#N)C[C@H]12
IC50 (Beta-secretase 1 [4]): 1.86 nM
IC50 (Beta-secretase 2 [5]): 14.5 nM
inhibition in vivo at 0.16 mg/kg (Canis familiaris [6]): 42%
inhibition in vivo at 0.31 mg/kg (Canis familiaris [7]): 54%
inhibition in vivo at 1.25 mg/kg (Canis familiaris [8]): 80%
IC50 (Beta-secretase 1 [9]): 1.26 nM

IC50 (Beta-secretase 1 [10]): 11.9 nM
IC50 (Beta-secretase 1 [11]): 1.03 nM
IC50 (Beta-secretase 2 [12]): 602 nM
SMILES: CC(F)(F)[C@H]1OC[C@]2(c3cc(NC(=O)c4ccc(C(F)(F)F)cn4)ccc3F)N=C(N)SC[C@H]12

SMILES: NC1=N[C@@]2(c3cc(NC(=O)c4ccc(C(F)(F)F)cn4)ccc3F)CO[C@H](C(F)(F)F)[C@H]2CO1
IC50 (Beta-secretase 1 [13]): 11.9 nM
IC50 (Beta-secretase 1 [14]): 1.03 nM
IC50 (Beta-secretase 2 [15]): 602 nM
inhibition in vivo at 1 mg/kg (Canis familiaris [16]): 65%
inhibition in vivo at 1 mg/kg (Canis familiaris [17]): 55%

SMILES: CC#Cc1cncc(-c2ccc3c(c2)[C@]2(N=C(C)C(N)=N2)[C@]2(CC[C@@H](OC)CC2)C3)c1
inhibition (INH) (Homo sapiens [18]): 52%
inhibition (INH) (Homo sapiens [19]): 76%
inhibition (INH) (Homo sapiens [20]): 90%

SMILES: Cc1cc(C#N)cnc1C(=O)Nc1ccc(F)c([C@@]2(C)N=C(N)C(C)(C)[S@@]3(=O)=NCC[C@@H]23)n1
inhibition in vivo at 30 mg/kg (Mus musculus): 60%

Ratio IC50 (Homo sapiens [21]): > 400
SMILES: CC(F)(F)[C@H]1OC[C@]2(c3cc(NC(=O)c4cnc(-n5cncn5)cn4)ccc3F)N=C(N)SC[C@H]12

SMILES: C[C@@]1(S(C)(=O)=O)CC[C@@](CF)(c2cc(NC(=O)c3ccc(OCF)cn3)ccc2F)N=C1N
IC50 (Beta-secretase 1 [4]): 2.2 nM
IC50 (Beta-secretase 2 [5]): 16.6 nM
inhibition in vivo at 0.16 mg/kg (Canis familiaris [6]): 71%
inhibition in vivo at 0.31 mg/kg (Canis familiaris [7]): 78%
inhibition in vivo at 1.25 mg/kg (Canis familiaris [8]): 89%
IC50 (Beta-secretase 1 [9]): 1.6 nM

SMILES: [2H]C([2H])([2H])Oc1cnc(C(=O)Nc2ccc(F)c([C@@]3(C)N=C(N)[C@@](C)(F)C[C@@H]3F)c2)cn1
inhibition in vivo at 3 mg/kg (Rattus norvegicus): 52%
Drug uptake [22]: 610 ng/g
efflux ratio at 1 h (P-glycoprotein (ABCB1)): 0.85
